Laboratory results published in PubChem BioAssay AID1259408 (Genetic Toxicology Data Bank (GENE-TOX), 2018).
Active and inactive are the calls of the source. No rule for the calls is given here.

Tested on: GENE-TOX genotoxicity assays, various organisms and cells
Assay: GENE-TOX mutagenicity studies
Conditions: for call: Assay Type: In vivo carcinogenicity studies, Assay Code: CCG+
[1] = Species/Cell Type: Nonhuman, Assay Type: Sister-chromatid exchange (SCE) in vitro, Assay Code: SC2+D, Dose Response: With dose response, Evaluation Type: Evaluation B (Post-1980)
[2] = Species/Cell Type: Salmonella typhimurium (one or more of the five standard strains: TA98, TA100, TA1535, TA1537, and TA1538), Assay Type: Histidine reverse gene mutation, Ames assay, Assay Code: SALT, Evaluation Type: Evaluation A (Pre-1980)
[3] = Species/Cell Type: Nonhuman, Evaluation Type: Evaluation A (Pre-1980)
[4] = Species/Cell Type: Salmonella typhimurium (one or more of the five standard strains: TA98, TA100, TA1535, TA1537, and TA1538), Assay Type: Histidine reverse gene mutation, Ames assay, Assay Code: SAL+, Evaluation Type: Evaluation A (Pre-1980)
[5] = Species/Cell Type: Salmonella typhimurium (one or more of the five standard strains: TA98, TA100, TA1535, TA1537, and TA1538), Assay Type: Histidine reverse gene mutation, Ames assay, Assay Code: SAL+*, Activation: With metabolic activation, Evaluation Type: Evaluation A (Pre-1980)
[6] = Species/Cell Type: Mouse, Sex: Male, Assay Type: Sperm morphology, Assay Code: SPI-, Evaluation Type: Evaluation A (Pre-1980)
[7] = Species/Cell Type: Nonhuman, Assay Type: Sister-chromatid exchange (SCE) in vitro, Assay Code: SC2+, Evaluation Type: Evaluation B (Post-1980)
[8] = Species/Cell Type: Human, Assay Type: Sister-chromatid exchange (SCE) in vitro, Assay Code: SC1T, Evaluation Type: Evaluation A (Pre-1980)
[9] = Species/Cell Type: Mammalian polychromatic erythrocytes, Assay Type: Micronucleus test, chromosome aberrations, Assay Code: MNT+, Evaluation Type: Evaluation A (Pre-1980)
[10] = Species/Cell Type: Neurospora crassa, Assay Type: Reverse gene mutation, Assay Code: NER+, Evaluation Type: Evaluation A (Pre-1980)
[11] = Species/Cell Type: Salmonella typhimurium (one or more of the five standard strains: TA98, TA100, TA1535, TA1537, and TA1538), Assay Type: Histidine reverse gene mutation, Ames assay, Assay Code: SAL-, Evaluation Type: Evaluation A (Pre-1980)

Compound: O=CCCCC=O
- mutagenic call (Species/Cell Type: Chinese hamster ovary (CHO) cells, Assay Type: Forward gene mutation at the HPRT locus, Assay Code: CHO-, Evaluation Type: Evaluation B (Post-1980)): inactive; negative
- mutagenic call [1]: active; positive

Compound: C=CC(O)c1ccc(OC)cc1 (configuration not stated)
- mutagenic call [2]: no conclusion

Compound: [As]
- mutagenic call (Species/Cell Type: Human lymphocytes, Assay Type: Sister-chromatid exchange (SCE) in vivo, Assay Code: SCY+, Evaluation Type: Evaluation B (Post-1980)): active; positive

Compound: CC1CC(=O)O1 (configuration not stated)
- call [3]: active; positive

Compound: COC(=O)c1ccc(N=Nc2ccc(N(C)OC(C)=O)cc2)cc1
- mutagenic call [4]: active; positive

Compound: CCCCN(CCC(C)=O)N=O
- mutagenic call [5]: active; positive

Compound: O=C(O)c1c(Cl)c(Cl)c(Cl)c(Cl)c1-c1c2cc(Br)c(=O)c(Br)c-2oc2c(Br)c(O)c(Br)cc12
- mutagenic call (Species/Cell Type: Bacillus subtilis (H17 vs M45), Assay Type: Rec-assay, spot test, DNA effects (bacterial DNA repair), Assay Code: REWT, Evaluation Type: Evaluation A (Pre-1980)): no conclusion

Compound: Cc1cc(Cl)ccc1OCCCC(=O)O
- mutagenic call (Species/Cell Type: Drosophila melanogaster, Assay Type: Sex-linked recessive lethal gene mutation, Assay Code: SRL-, Evaluation Type: Evaluation A (Pre-1980)): inactive; negative
- mutagenic call (Species/Cell Type: Salmonella typhimurium, Serratia marcesens, Assay Type: Forward and reverse gene mutation, host-mediated assay, Assay Code: HM2-, Evaluation Type: Evaluation A (Pre-1980)): inactive; negative

Compound: Cc1c2ccccc2c(C)c2ccccc12
- mutagenic call (Species/Cell Type: Mammalian polychromatic erythrocytes, Assay Type: Micronucleus test, chromosome aberrations, Assay Code: MNTT, Evaluation Type: Evaluation A (Pre-1980)): no conclusion
- mutagenic call [6]: inactive; negative
- mutagenic call [7]: active; positive
- mutagenic call [5]: active; positive

Compound: COc1c2occc2c(OC)c2c(=O)cc(C)oc12
- mutagenic call [8]: no conclusion

Compound: C[CH2][Hg][Cl]
- mutagenic call (Species/Cell Type: Mammalian polychromatic erythrocytes, Assay Type: Micronucleus test, chromosome aberrations, Assay Code: MNTT, Evaluation Type: Evaluation B (Post-1980)): no conclusion

Compound: Nc1nncs1
- mutagenic call (Species/Cell Type: Drosophila melanogaster, Assay Type: Aneuploidy, sex chromosome gain, chromosome aberrations, Assay Code: DAG+M, Evaluation Type: Evaluation A (Pre-1980)): active; positive
- mutagenic call (Species/Cell Type: Drosophila melanogaster, Assay Type: Aneuploidy, whole sex chromosome loss, chromosome aberrations, Assay Code: DAC+M, Evaluation Type: Evaluation A (Pre-1980)): active; positive
- mutagenic call (Species/Cell Type: Drosophila melanogaster, Sex: Male, Assay Type: Heritable translocation test, chromosome aberrations, Assay Code: DHTT, Evaluation Type: Evaluation A (Pre-1980)): no conclusion

Compound: O=[N+]([O-])c1cccc2cn[nH]c12
- mutagenic call [4]: active; positive

Compound: COc1ccc2c(c1)CC[C@@H]1[C@@H]2CC[C@]2(C)[C@@H](O)[C@H](O)C[C@@H]12
- mutagenic call (Species/Cell Type: Rat, Sex: Male, Assay Type: Sperm morphology, Assay Code: SPA+, Evaluation Type: Evaluation A (Pre-1980)): active; positive

Compound: Cc1c2cccc(F)c2c(C)c2c1ccc1ccccc12
- mutagenic call (Species/Cell Type: Chinese hamster lung (V79) cells, Assay Type: Forward gene mutation at the HPRT or ouabain locus, Assay Code: V79+, Evaluation Type: Evaluation A (Pre-1980)): active; positive

Compound: CN(C)N=Nc1c(Cl)cc(Cl)cc1Cl
- mutagenic call (Species/Cell Type: Drosophila melanogaster, Assay Type: Aneuploidy, partial sex chromosome loss, chromosome aberrations, Assay Code: DAPT, Evaluation Type: Evaluation A (Pre-1980)): no conclusion
- mutagenic call (Species/Cell Type: Drosophila melanogaster, Assay Type: Aneuploidy, whole sex chromosome loss, chromosome aberrations, Assay Code: DACT, Evaluation Type: Evaluation A (Pre-1980)): no conclusion
- mutagenic call (Species/Cell Type: Drosophila melanogaster, Assay Type: Sex-linked recessive lethal gene mutation, Assay Code: SRL+, Evaluation Type: Evaluation A (Pre-1980)): active; positive
- mutagenic call [9]: active; positive
- mutagenic call (Species/Cell Type: Neurospora crassa, Assay Type: Forward gene mutation, Assay Code: NEF+, Evaluation Type: Evaluation A (Pre-1980)): active; positive
- mutagenic call (Species/Cell Type: Saccharomyces cerevisiae, Assay Type: Mitotic recombination or gene conversion, Assay Code: YEC+, Evaluation Type: Evaluation A (Pre-1980)): active; positive

Compound: CC1=C(/C=C/C(C)=C/C=C/C(C)=C/COc2ccccc2)C(C)(C)CCC1
- mutagenic call (Species/Cell Type: Human, Assay Type: Sister-chromatid exchange (SCE) in vitro, Assay Code: SC1+D, Dose Response: With dose response, Evaluation Type: Evaluation B (Post-1980)): active; positive

Compound: O[C@@H]1[C@@H](O)c2c(cc3ccc4cccc5ccc2c3c45)C2O[C@@H]21 (some centres not stated)
- mutagenic call [4]: active; positive

Compound: O=[N+]([O-])c1ccc(/C=C/c2cnc(N(CO)CO)nn2)o1
- call [3]: active; positive

Compound: Nc1ccccc1N
- mutagenic call (Species/Cell Type: Allium cepa, Assay Type: Chromosome aberrations, Assay Code: ALC+, Evaluation Type: Evaluation A (Pre-1980)): active; positive
- mutagenic call (Species/Cell Type: Mammalian polychromatic erythrocytes, Assay Type: Micronucleus test, chromosome aberrations, Assay Code: MNT+, Evaluation Type: Evaluation B (Post-1980)): active; positive
- mutagenic call (Species/Cell Type: Neurospora crassa, Assay Type: Aneuploidy, chromosome aberrations, Assay Code: NEN-, Evaluation Type: Evaluation A (Pre-1980)): inactive; negative
- mutagenic call (Species/Cell Type: Rodents, Sex: Male, Assay Type: Dominant lethal test, Assay Code: DLT-, Evaluation Type: Evaluation A (Pre-1980)): inactive; negative

Compound: O=C(NOS(=O)(=O)O)c1ccc2ccccc2c1
- mutagenic call [1]: active; positive

Compound: C#C[C@]1(OC(C)=O)CC[C@H]2[C@@H]3CCC4=CC(=O)CC[C@@H]4[C@H]3CC[C@@]21C
- mutagenic call (Species/Cell Type: Rodents, Sex: Male, Assay Type: Dominant lethal test, Assay Code: DLTT, Evaluation Type: Evaluation A (Pre-1980)): no conclusion

Compound: C[C@H]1CCCCN1N=O
- call [3]: active; positive

Compound: CCN(CCCl)CCCNc1ccnc2ccc(OC)cc12
- mutagenic call [10]: active; positive

Compound: CN1CCC(=C2c3ccccc3C=Cc3ccccc32)CC1
- mutagenic call [2]: no conclusion

Compound: Cc1cc(-c2cc(C)c(N)c(C)c2)cc(C)c1N
- mutagenic call (Species/Cell Type: Human diploid fibroblasts, Assay Type: Unscheduled DNA synthesis (UDS) in vitro, DNA effects, Assay Code: UDH-*, Activation: With metabolic activation, Evaluation Type: Evaluation A (Pre-1980)): inactive; negative
- mutagenic call (Species/Cell Type: Human, Assay Type: Sister-chromatid exchange (SCE) in vitro, Assay Code: SC1-, Evaluation Type: Evaluation B (Post-1980)): inactive; negative
- mutagenic call [9]: active; positive
- mutagenic call [6]: inactive; negative
- mutagenic call [7]: active; positive
- mutagenic call (Species/Cell Type: Nonhuman, Assay Type: Sister-chromatid exchange (SCE) in vivo, Assay Code: SC3T, Evaluation Type: Evaluation B (Post-1980)): no conclusion
- mutagenic call [11]: inactive; negative
- mutagenic call (Species/Cell Type: Tradescantia species, Assay Type: Gene mutation, Assay Code: TRM+D, Dose Response: With dose response, Evaluation Type: Evaluation A (Pre-1980)): active; positive

Compound: [Cl][W]([Cl])([Cl])([Cl])([Cl])[Cl]
- mutagenic call (Species/Cell Type: Syrian hamster embryo (SA7/SHE) cells, Assay Type: Cell transformation, viral enhanced, Assay Code: CT7-, Evaluation Type: Evaluation A (Pre-1980)): inactive; negative

Compound: Cc1cc2cc3c(C)cc(=O)oc3c(C)c2o1
- mutagenic call (Species/Cell Type: Human lymphocytes, Assay Type: Sister-chromatid exchange (SCE) in vitro, Assay Code: SCLT, Evaluation Type: Evaluation A (Pre-1980)): no conclusion
- mutagenic call [8]: no conclusion

Compound: CCN(CCCl)CCCNc1ccnc2cc(Cl)ccc12
- mutagenic call [10]: active; positive

Compound: O=C1CCCCCO1
- mutagenic call (Species/Cell Type: Escherichia coli polA (W3110 vs P3478), Assay Type: Rec-assay, DNA effects (bacterial DNA repair), Assay Code: RE2-, Evaluation Type: Evaluation A (Pre-1980)): inactive; negative
- mutagenic call (Species/Cell Type: Escherichia coli polA (W3119 vs P3478), Assay Type: Rec-assay, DNA effects (bacterial DNA repair), Assay Code: RE1-, Evaluation Type: Evaluation A (Pre-1980)): inactive; negative
- mutagenic call (Species/Cell Type: Mouse lymphoma (L5178Y) cells, Assay Type: Forward gene mutation at the thymidine kinase (TK) locus, chromosome aberrations, Assay Code: L51-, Evaluation Type: Evaluation A (Pre-1980)): inactive; negative
- mutagenic call (Species/Cell Type: Nonhuman, Assay Type: Sister-chromatid exchange (SCE) in vitro, Assay Code: SC2-, Evaluation Type: Evaluation A (Pre-1980)): inactive; negative
- mutagenic call (Species/Cell Type: Saccharomyces cerevisiae, Assay Type: Mitotic recombination or gene conversion, Assay Code: YEH-, Evaluation Type: Evaluation A (Pre-1980)): inactive; negative
- mutagenic call [11]: inactive; negative
- mutagenic call (Species/Cell Type: Salmonella typhimurium, Assay Type: Forward and reverse gene mutation, host-mediated assay, Assay Code: HMA-, Evaluation Type: Evaluation A (Pre-1980)): inactive; negative
- mutagenic call (Species/Cell Type: Syrian hamster embryo (SHE) cells, Assay Type: Cell transformation, clonal assay, Assay Code: CTC-, Evaluation Type: Evaluation A (Pre-1980)): inactive; negative

Compound: [O]=[Zr]
- mutagenic call (Species/Cell Type: Nonhuman, Assay Type: Sister-chromatid exchange (SCE) in vitro, Assay Code: SC2-, Evaluation Type: Evaluation B (Post-1980)): inactive; negative

Compound: O.O.O.O.O.O.O.O.O.O=[N+]([O-])[O-].O=[N+]([O-])[O-].O=[N+]([O-])[O-].[Cr+3]
- mutagenic call [7]: active; positive
